Results reported in ChEMBL document CHEMBL1129314, “Synthesis of novel Se-substituted selenocysteine derivatives as potential kidney selective prodrugs of biologically active selenol compounds: evaluation of kinetics of beta-elimination reactions in rat renal cytosol” (J Med Chem, 1996).

Assays:
[1] = target: Kynurenine--oxoglutarate transaminase 1 (Rattus norvegicus) (UniProt Q08415); test: Specific activity against beta-elimination reaction by rat renal cytosolic beta-lyase after incubation with 0.2 mg of protein/mL for 10 min at 37 degree C using 1 mM substrate conc.
[2] = target: Kynurenine--oxoglutarate transaminase 1 (Rattus norvegicus) (UniProt Q08415); test: Ratio of Vmax and Km for elimination of conjugates by rat renal cytosol

Sequence of Kynurenine--oxoglutarate transaminase 1 (Rattus norvegicus) (Q08415 whole entry, looked up): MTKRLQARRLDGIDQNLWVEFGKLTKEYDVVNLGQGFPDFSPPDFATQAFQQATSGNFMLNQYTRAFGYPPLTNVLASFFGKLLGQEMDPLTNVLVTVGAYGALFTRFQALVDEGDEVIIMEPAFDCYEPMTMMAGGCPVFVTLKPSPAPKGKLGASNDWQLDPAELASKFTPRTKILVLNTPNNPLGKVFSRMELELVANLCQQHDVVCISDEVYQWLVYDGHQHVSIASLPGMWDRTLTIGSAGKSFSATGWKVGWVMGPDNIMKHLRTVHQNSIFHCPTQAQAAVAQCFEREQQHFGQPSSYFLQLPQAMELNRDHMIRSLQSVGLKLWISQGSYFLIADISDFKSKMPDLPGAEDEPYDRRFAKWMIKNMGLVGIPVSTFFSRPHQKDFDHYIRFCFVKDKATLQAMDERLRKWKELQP

Row | SMILES | Specific activity (nM min-1 mg-1) [1] | Vmax / Km (nM min-1 mg-1 mM-1) [2]
1 | N[C@@H](C[Se]c1ccc(Cl)cc1)C(=O)O | 5.2 | 16.7
2 | Cc1ccc(C[Se]CC(N)C(=O)O)cc1 (single isomer, unassigned) | 13.1 | 70.2
3 | CC[Se]C[C@H](N)C(=O)O | 11 | 21.8
4 | N[C@@H](C[Se]c1ccccc1)C(=O)O | 13.8 | 44.2
5 | N[C@@H](CSc1ccccc1)C(=O)O | 0.2 | 
6 | Cc1ccc([Se]CC(N)C(=O)O)cc1 (single isomer, unassigned) | 3.8 | 16.7
7 | COc1ccc(C[Se]C[C@H](N)C(=O)O)cc1 | 10.2 | 44.9
8 | N[C@@H](C[Se]Cc1ccccc1)C(=O)O | 9.8 | 70
9 | Cc1ccc([Se]C[C@H](N)C(=O)O)cc1 | 0.1 | 
10 | N[C@@H](C[Se]Cc1ccc(Cl)cc1)C(=O)O | 11.6 | 68.4
11 | N[C@@H](C[Se]Cc1ccc(Cl)c(Cl)c1)C(=O)O | 12.3 | 49
12 | COc1ccc(CSC[C@H](N)C(=O)O)cc1 | 0.1 | 
13 | Cc1ccc(CSC[C@H](N)C(=O)O)cc1 | 0.3 | 
14 | CC(C)[Se]C[C@H](N)C(=O)O | 14.9 | 66.9
15 | COc1ccc([Se]C[C@H](N)C(=O)O)cc1 | 4.3 | 14
16 | C[Se]C[C@H](N)C(=O)O | 4 | 
17 | C[Se]CC(N)C(=O)O (single isomer, unassigned) | 7.1 | 13.2
18 | CCC[Se]CC(N)C(=O)O (single isomer, unassigned) | 8 | 25.7
19 | Cc1ccc(C[Se]C[C@H](N)C(=O)O)cc1 | 4.9 | 
20 | CCCC[Se]C[C@H](N)C(=O)O | 0.9 | 1.8
21 | CCSC[C@H](N)C(=O)O | 0.1 | 
22 | CCC[Se]C[C@H](N)C(=O)O | 3.3 | 
23 | N[C@@H](CSCc1ccccc1)C(=O)O | 0.2 | 
